According to PMC13192270, “RhlR quorum-sensing receptor ligand sensitivity regulates the differential expression of phenazine genes in Pseudomonas aeruginosa” (Journal of Bacteriology, 2026):
Substitutions are numbered along the chain they refer to. Like-named read-outs stand apart in the source and are kept apart here.

What was measured:
Assay in all cases: E. coli prhlA-luxCDABE luciferase reporter assay
Type in all cases: cell-based
RhlR (A44M) = molecular target: T1, RhlR (A44M) (Pseudomonas aeruginosa, UniProt P54292, A44M); conditions: even at the highest dose of C4HSL tested
T1 construct: expressed in transfected cells; host or cells: E. coli carrying pBAD-A-rhlR mutant, pCS26-prhlA-luxCDABE and pACYC-pqsE or empty pACYC
Excerpt: (§1) Previous analysis of the RhlR LBP focused on highly conserved residues that were known from other AHL-binding proteins to be important contacts for AHL molecules, particularly the lactone head group. We performed conservation analyses on 300 LuxR-type receptors to determine variable and moderately conserved residues in the LBP (Fig. 1B) and, in conjunction with our previously determined experimental structure of WT RhlR bound to the synthetic agonist mBTL, used for docking C4- and C6HSL. Based on our docking simulations, C4- and C6HSL occupy a similar position in the LBP as mBTL, a highly efficacious activator of RhlR (Fig. 1C; Fig. S1). We targeted residues A44, G46, T58, L69, Y72, D81, I84, W96, and W108 (Fig. 1B and C). These residues were selected because of their proximity to the acyl tail of C4HSL, as well as the differences in conservation that are observed at these sites. We used an E. coli luciferase reporter assay to monitor ligand-dependent activation of WT RhlR and RhlR variants. WT RhlR and RhlR variants were expressed under the control of an arabinose-inducible promoter (Fig. S2). Transcription was monitored by light production via the expression of the luxCDABE operon controlled by the RhlR-dependent promoter of rhlA. Binding of RhlR to the rhlA promoter is highly dependent on the C4HSL-RhlR interaction, based on ChIP-seq analyses performed in P. aeruginosa as well as previously published E. coli reporter systems ([34], [39]). After expressing WT RhlR and RhlR variants in the E. coli reporter system, we performed dose response assays using C4HSL to calculate the concentration of C4HSL required to activate the reporter system to 50% maximum levels (EC50 value; Table 1). As expected, transcription activation by WT RhlR increased with increased C4HSL levels, with an EC50 value of ~2 µM. We observed a range of responses. Figure 1C depicts the targeted residues, which are colored based on the effect of amino acid substitution.
(§2) RhlR requires the accessory-binding protein, PqsE, for maximal activity. To determine if PqsE expression altered the activation of RhlR variants, we assessed AHL-dependent RhlR activation of the prhlA-luxCDABE reporter in the presence of a third plasmid that constitutively expresses PqsE in E. coli. […] RhlR variants that were still active but with increased EC50 values for C4HSL could have their activity enhanced by PqsE. […] Thus, alterations to the LBP can diminish the additive effect of PqsE-dependent transcription, indicating a potential role of allosteric conformational changes dependent on ligand occupancy. […] RhlR variants at residues I84 and W108 could not be activated by C4HSL, and thus, light levels remained low at all concentrations that were tested. Unlike the aforementioned variants, RhlR I84M/W and RhlR W108F/Y were activated by the expression of PqsE (Fig. S4).
(§3) All E. coli strains in this study were grown overnight with shaking in 5 mL Luria-Bertani (LB) media supplemented with 100 µg/mL ampicillin, 50 µg/mL kanamycin, and 15 µg/mL tetracycline at 37°C overnight. Overnight cultures were diluted 1:100 into fresh media, grown at 37°C with shaking for 2 h until reaching OD600 = 0.4. Cultures were induced with a final concentration of 0.1% arabinose, and 198 μL of the induced culture was mixed with 2 μL of C4HSL dilutions in a clear-bottom, black-opaque 96-well plate (Corning) and grown at 37°C with shaking for 4 h. The C4HSL dilution series was performed 1:1 in dimethyl sulfoxide (DMSO) with a top final concentration of 10 μM. Luminescence and optical density were recorded using a Glomax (Promega) plate reader.

RhlR (G46M) = molecular target: T2, RhlR (G46M) (Pseudomonas aeruginosa, UniProt P54292, G46M)
T2 construct: expressed in transfected cells; host or cells: E. coli carrying pBAD-A-rhlR mutant, pCS26-prhlA-luxCDABE and pACYC-pqsE or empty pACYC
Excerpt: as §1, §2, §3

RhlR (G46W) = molecular target: T3, RhlR (G46W) (Pseudomonas aeruginosa, UniProt P54292, G46W); conditions: even at the highest dose of C4HSL tested
T3 construct: expressed in transfected cells; host or cells: E. coli carrying pBAD-A-rhlR mutant, pCS26-prhlA-luxCDABE and pACYC-pqsE or empty pACYC
Excerpt: as §1, §2, §3

RhlR (I84M) = molecular target: T4, RhlR (I84M) (Pseudomonas aeruginosa, UniProt P54292, I84M); conditions: pqsE co-expressed
T4 construct: expressed in transfected cells; host or cells: E. coli carrying pBAD-A-rhlR mutant, pCS26-prhlA-luxCDABE and pACYC-pqsE or empty pACYC
Excerpt: as §1, §2, §3

RhlR (I84W) = molecular target: T5, RhlR (I84W) (Pseudomonas aeruginosa, UniProt P54292, I84W); conditions: pqsE co-expressed
T5 construct: expressed in transfected cells; host or cells: E. coli carrying pBAD-A-rhlR mutant, pCS26-prhlA-luxCDABE and pACYC-pqsE or empty pACYC
Excerpt: as §1, §2, §3

RhlR (L69K) = molecular target: T6, RhlR (L69K) (Pseudomonas aeruginosa, UniProt P54292, L69K); conditions: pqsE co-expressed
T6 construct: expressed in transfected cells; host or cells: E. coli carrying pBAD-A-rhlR mutant, pCS26-prhlA-luxCDABE and pACYC-pqsE or empty pACYC
Excerpt: as §1, §2, §3

RhlR (L69M) = molecular target: T7, RhlR (L69M) (Pseudomonas aeruginosa, UniProt P54292, L69M)
T7 construct: expressed in transfected cells; host or cells: E. coli carrying pBAD-A-rhlR mutant, pCS26-prhlA-luxCDABE and pACYC-pqsE or empty pACYC
Excerpt: as §1, §2, §3

RhlR (T58V) = molecular target: T8, RhlR (T58V) (Pseudomonas aeruginosa, UniProt P54292, T58V)
T8 construct: expressed in transfected cells; host or cells: E. coli carrying pBAD-A-rhlR mutant, pCS26-prhlA-luxCDABE and pACYC-pqsE or empty pACYC
T8 sequence (P54292 1-241 T58V): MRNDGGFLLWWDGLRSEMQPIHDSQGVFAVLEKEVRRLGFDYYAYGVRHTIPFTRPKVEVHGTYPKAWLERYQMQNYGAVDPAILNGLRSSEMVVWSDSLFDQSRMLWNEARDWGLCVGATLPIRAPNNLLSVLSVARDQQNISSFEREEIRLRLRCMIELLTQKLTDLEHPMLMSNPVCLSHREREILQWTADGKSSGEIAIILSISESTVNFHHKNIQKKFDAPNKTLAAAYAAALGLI
Excerpt: as §1, §2, §3

WT RhlR = molecular target: T9, WT RhlR (Pseudomonas aeruginosa, UniProt P54292)
T9 construct: expressed in transfected cells; host or cells: E. coli carrying pBAD-A-rhlR, pCS26-prhlA-luxCDABE and pACYC-pqsE or empty pACYC
T9 sequence (P54292 1-241): T8 sequence (P54292 1-241 T58V) with V58T
Excerpt: as §1, §2, §3

In the case of `CCCC(=O)N[C@H]1CCOC1=O` [C4HSL, N-butyryl-L-homoserine lactone], the “activation by C4HSL in the reporter system” value (“activation by C4HSL” below) (RhlR (A44M)) is reported as “not activated”, the “activation by C4HSL” value (RhlR (G46M); even at the highest dose of C4HSL tested) is reported as “not activated” and the EC50 (RhlR (G46M); pqsE co-expressed) is reported as 32700 nM. The “activation by C4HSL” value (RhlR (G46W)) was “not activated”, the EC50 (RhlR (I84M)) was 3680 nM and the EC50 (RhlR (I84W)) was 5200 nM. It also gave an EC50 (RhlR (L69K)) of 13200 nM, an EC50 (RhlR (L69M); Vector (no pqsE)) of 13800 nM and an EC50 (RhlR (L69M); pqsE co-expressed) of 1720 nM. It also gave an EC50 (RhlR (T58V); Vector (no pqsE)) of 660 nM, an EC50 (RhlR (T58V); pqsE co-expressed) of 148 nM and an EC50 (WT RhlR; Vector (no pqsE), read-out: EC50) of 2420 nM. The EC50 (WT RhlR; pqsE co-expressed, read-out: EC50) was 534 nM, the “C4HSL required for QS activation” value (WT RhlR; statement in discussion) was over 1 µM and the EC50 (WT RhlR; without PqsE, read-out: EC50 value) was about 2000 nM.
